{
  "source": "patent US8637467B2",
  "about": "“Pharmaceutical being used for treating cancer and fibrosis disease and the composition and uses thereof” (Wuxi MTLH Biotechnology Co., Ltd., priority 2008, dated 2014)",
  "key": {"α-SMA mRNA": {"system": "α-SMA mRNA", "experiment": "RT-PCR of α-SMA mRNA expression in HSC", "type": "cell-based, SD rat", "settings": "after 48 hours, FIG. 4", "description": "(§1) HSC from SD rats were separated using centrifuging on gradient created by Pronase-collagenase and Nycodenz. HSC cells at 1.5×10^5/cm2 was plated at 6-well plate, or culture dish (100 mm diameter). The culture medium is DMEM with 20% serum from newborn calf. The purity of HSC cells was determined using Vitamin A self-fluorescence and anti-Desmin immunocytochemistry experiments. Cell viability was determined using trypan blue staining. First generation HSC's purity and viability were 90% and 95% respectively. HSC can self-activate if grown in non-ECM condition, which means HSC can express α-SMA, and Vitamin A drop disappears. After cell fusion, activated HSC is released with trypsin, and propagate.\nUse Trizol reagent to extract total RNA, then conduct two-step RT-PCR according to kit instructions."}, "α-SMA protein": {"system": "α-SMA protein", "experiment": "Western blot of α-SMA protein expression in HSC", "type": "cell-based, SD rat", "settings": "FIG. 5", "description": "as §1\nCollect cells and add cell lysis buffer, extract total protein. Total protein amount was determined using Bradford assay. 40 μg total protein was examined using 10% SDS polyacrylamide gel. The gel was probed using monoclonal antibody against α-SMA."}, "BEL-7402": {"system": "BEL-7402", "type": "cell-based, Human", "settings": "72 h", "description": "(§2) 2. Cell Lines • Human liver cancer cell line (SMMC-7721, BEL-7402, BEL-7402) were purchased from National Medical Academy of Sciences Tissue Bank and Chinese Academy of Sciences, Shanghai Cell line Research Institute.\n(§3) 3. Cell Culture • All cell lines were incubated at 37C, 5% CO2 incubator with saturated humidity. Culture media was RPMI1640 media with 10% heat inactivated FBS, penicillin 100 u/ml, streptomycin 100 u/ml. After 48 hours media was changed. Cells were released with 0.25% trypsin and propagate. Cells used in the experiment were in log phase. Cell viability was determined using trypan blue staining.\n(§4) 4. Methods • Take cells at log phase and release with 0.125% trypsin+0.01% EDTA and dilute cells to 2-4×10^4 cells/ml. Cells were placed in 96 well plate (180 ul/well), and were incubated at 37 C CO2 incubator for 24 hours. Media was changed, then peptide SEQ ID No:1 was added to the well (20 ul/well), incubate for 72 hours. Add MTT into 96 well plate (20 ul/well), and incubate for 4 hours. Media was removed, add DMSO (150 ul/well). The plate was shaken for 10 minutes. 7 concentration points (0.1 to 10 uM) was examined. Absorbance at 570 nm was measured for each well to calculate the IC50. IC50=(O.D. at well with no peptide−O.D. at well with peptide)/O.D. at well with no peptide"}, "BEL-7404": {"system": "BEL-7404", "type": "cell-based, Human", "settings": "72 h", "description": "as §2, §3, §4"}, "SMMC-7721": {"system": "SMMC-7721", "type": "cell-based, Human", "settings": "72 h", "description": "as §2, §3, §4"}, "liver cancer (H22)": {"system": "liver cancer (H22)", "experiment": "Xenograph liver cancer nude mice model (H22)", "type": "in vivo", "settings": "H22, 1 mg/kg", "description": "(§5) Experimental animals: Female BALB/cA nude mice, age 35-40 days, weight 18-22 g, provided by Shanghai Silaike Experimental Animal Co. Ltd., certificate number: SOCK (Shanghai) 2007-0005.\n(§6) The tumor of xenograph nude mice grew to 100˜300 mm^3. Tumor mice were divided into different groups for drug testing. In the experiment below, there were 12 nude mice in negative control group, and 6 nude mice in the group with tested drug. Tumor diameter was measured three times each week, and mice weight was measured at the same time.\n(§7) T/C (relative tumor inhibition rate) % was calculated as below: • (1) tumor volume, TV, calculated as below: TV=½×a×b^2 • A and b are length and width. • (2) relative tumor volume, RTV, calculated as below: RTV=TVt/TV0. • TV0 ? is tumor volume at the beginning of drug use (d0), TVt is tumor volume at later time point. • (3) relative tumor inhibition rate T/C (%), calculate as below:\n(§8) [formula] TRTV: treatment group RTV; CRTV: negative control RTV"}, "[1]": {"system": "human liver cancer BEL-7402", "experiment": "Human liver cancer BEL-7402 xenograph nude mice", "type": "in vivo", "settings": "for T/C(%) relative tumor inhibition rate: 6 times a week, 3 weeks", "description": "as §5, §6, §7, §8\n[…] Docetaxol was positive control, at dosing of 20 mg/kg, once a week. Negative control was given saline solution. The xenograph nude mice were treated for 3 weeks."}, "[2]": {"system": "human stomach cancer SGC-7901", "experiment": "Human stomach cancer SGC-7901 xenograph nude mice", "type": "in vivo", "settings": "0.125 mg/kg IV, 6 times a week, 3 weeks", "description": "as §5, §6, §7, §8\nPeptide SEQ ID No:1 was given through tail vain (IV), at dosing of 1 mg/kg, 0.5 mg/kg, 0.25 mg/kg, 0.125 mg/kg, and 0.0625 mg/kg, 6 times a week. 5-FU was positive control, at dosing of 25 mg/kg, once a week. Negative control was given saline solution. The xenograph nude mice were treated for 3 weeks."}, "[3]": {"system": "human breast cancer MDA-MB-435", "experiment": "Human breast cancer MDA-MB-435 xenograph nude mice", "type": "in vivo", "settings": "0.5 mg/kg IV, 6 times a week, 4 weeks", "description": "as §5, §6, §7, §8\nPeptide SEQ ID No:1 was given through tail vein (IV), at dosing of 2 mg/kg, 1 mg/kg, 0.5 mg/kg, 6 times a week. Docetaxol was positive control, at dosing of 20 mg/kg, once a week. Negative control was given saline solution. The xenograph nude mice were treated for 4 weeks."}, "human lung cancer A549": {"system": "human lung cancer A549", "experiment": "Human lung cancer A549 xenograph nude mice", "type": "in vivo", "settings": "6 times a week, 3 weeks", "description": "as §5, §6, §7, §8\nPeptide SEQ ID No:1 was given through tail vein (IV), at dosing of 0.5 mg/kg, 0.25 mg/kg, and 0.125 mg/kg, 6 times a week. Docetaxol was positive control, at dosing of 20 mg/kg, once a week. Negative control was given saline solution. The xenograph nude mice were treated for 3 weeks."}, "[4]": {"experiment": "Mice weight in xenograph tumor mice models", "type": "in vivo, BALB/cA nude mice", "settings": "all the xenograph tumor mice models, different concentration", "description": "as §6"}, "[5]": {"system": "human liver cancer cell BEL-7402", "experiment": "Migration of liver cancer cells through base membrane", "type": "cell-based", "description": "Peptide SEQ ID No:1 from example 1 can inhibit human liver cancer cell BEL-7402 migration from base membrane, at 0.01, 0.1, or 1 mg/ml (12 hour incubation)."}},
  "note": "Where no end group is shown, it is not given here.",
  "data": [
    {"substance": "SKVTKKYHEVLQLRPKTGVRGLHKSLTDVALEHHEECDCVCRGSTGG-OH (cysteines drawn unpaired) [Peptide SEQ ID NO:1]", "values": [
      {"measurement": "α-SMA mRNA expression (RT-PCR)", "setting": "α-SMA mRNA", "result": "inhibits α-SMA mRNA expression"},
      {"measurement": "α-SMA protein expression (Western Blot)", "setting": "α-SMA protein; after 48 hours", "result": "starts to decrease α-SMA protein expression"},
      {"measurement": "α-SMA protein expression (Western Blot)", "setting": "α-SMA protein; after 72 hours", "result": "significantly decrease α-SMA protein expression"},
      {"measurement": "IC50", "setting": "BEL-7402", "result": 1780, "unit": "nM"},
      {"measurement": "IC50", "setting": "BEL-7404", "result": 2330, "unit": "nM"},
      {"measurement": "IC50", "setting": "SMMC-7721", "result": 1250, "unit": "nM"},
      {"measurement": "inhibition rate, tumor", "setting": "liver cancer (H22)", "result": 67.8, "unit": "%"},
      {"measurement": "T/C(%) relative tumor inhibition rate", "setting": "[1]; 0.0625 mg/kg IV", "result": 58.56, "unit": "%"},
      {"measurement": "T/C(%) relative tumor inhibition rate", "setting": "[1]; 0.125 mg/kg IV", "result": 62.10, "unit": "%"},
      {"measurement": "T/C(%) relative tumor inhibition rate", "setting": "[1]; 0.25 mg/kg IV", "result": 69.06, "unit": "%"},
      {"measurement": "T/C(%) relative tumor inhibition rate", "setting": "[1]; 0.5 mg/kg IV", "result": 64.90, "unit": "%"},
      {"measurement": "inhibition, tumor", "setting": "[1]; BEL-7402, 1 mg/kg", "result": 39.7, "unit": "%"},
      {"measurement": "T/C(%) relative tumor inhibition rate", "setting": "[2]", "result": 47.66, "unit": "%"},
      {"measurement": "T/C(%) relative tumor inhibition rate", "setting": "[3]", "result": 49.40, "unit": "%"},
      {"measurement": "T/C(%) relative tumor inhibition rate", "setting": "human lung cancer A549; 0.125 mg/kg IV", "result": 48.96, "unit": "%"},
      {"measurement": "T/C(%) relative tumor inhibition rate", "setting": "human lung cancer A549; 0.25 mg/kg IV", "result": 47.98, "unit": "%"},
      {"measurement": "weight of the mice", "setting": "[4]", "result": "not affected"},
      {"measurement": "migration from base membrane", "setting": "[5]; BEL-7402, 0.01, 0.1, or 1 mg/ml, 12 hour incubation", "result": "can inhibit"},
      {"measurement": "cancer cell migration ability through base membrane", "setting": "[5]; incubated with cancer cells for 12 hours, FIG. 7", "result": "inhibits cancer cell migration ability through base membrane"}
    ]}
  ]
}
